This is an account of results in ChEMBL document CHEMBL4725318, “New vinyl-1,2,4-triazole derivatives as antimicrobial agents: Synthesis, biological evaluation and molecular docking studies” (2020).

What all share (format): functional
For test [1], the system named is Aspergillus versicolor. Kind of test: Fungicidal activity Aspergillus versicolor.
Test [2] relates to Aspergillus fumigatus. Kind of test: Antifungal activity Aspergillus fumigatus by microdilution method.
Test [3] relates to Penicillium cyclopium. Nature of the test: Fungicidal activity Penicillium verrucosum var. cyclopium.
For test [4], the system named is Pectobacterium carotovorum. Nature of the test: Bactericidal activity against Erwinia carotovora.
Test [5] concerns Erwinia amylovora. Kind of test: Antibacterial activity against Erwinia amylovora by microdilution method. In general terms: Broth dilution looks for growth in wells or tubes with falling amounts of substance.
Test [6] deals with Aspergillus fumigatus. Kind of test: Fungicidal activity Aspergillus fumigatus.
The subject of test [7] is Bacillus subtilis. Nature of the test: Antibacterial activity against Bacillus subtilis by microdilution method.
Test [8] has as its system Erwinia amylovora. Kind of test: Bactericidal activity against Erwinia amylovora.
The test system of test [9] is Trichoderma viride. Nature of the test: Antifungal activity Trichoderma viride by microdilution method.
For test [10], the system named is Pseudomonas fluorescens. Kind of test: Antibacterial activity against Pseudomonas fluorescens by microdilution method.
The subject of test [11] is Penicillium ochrochloron. Nature of the test: Antifungal activity Penicillium ochrochloron by microdilution method.
For test [12], the system named is Pectobacterium carotovorum. Nature of the test: Antibacterial activity against Erwinia carotovora by microdilution method.
Test [13] deals with Aspergillus niger. Nature of the test: Fungicidal activity Aspergillus niger.
Test [14] concerns Talaromyces funiculosus. Nature of the test: Fungicidal activity Penicillium funiculosum.
Test [15] concerns Penicillium cyclopium. Kind of test: Antifungal activity Penicillium verrucosum var. cyclopium by microdilution method.
Test [16] relates to Talaromyces funiculosus. Kind of test: Antifungal activity Penicillium funiculosum by microdilution method.
Test [17] concerns Aspergillus ochraceus. Kind of test: Antifungal activity Aspergillus ochraceus by microdilution method.
Test [18] has as its system Xanthomonas campestris. Nature of the test: Bactericidal activity against Xanthomonas campestris.
The test system of test [19] is Trichoderma viride. Nature of the test: Fungicidal activity Trichoderma viride.
The subject of test [20] is Pseudomonas fluorescens. Kind of test: Bactericidal activity against Pseudomonas fluorescens.
Test [21] has as its system Aspergillus versicolor. Nature of the test: Antifungal activity Aspergillus versicolor by microdilution method.
Test [22] concerns Xanthomonas campestris. Kind of test: Antibacterial activity against Xanthomonas campestris by microdilution method.
For test [23], the system named is Aspergillus niger. Nature of the test: Antifungal activity Aspergillus niger by microdilution method.
In test [24] the test system is Penicillium ochrochloron. Nature of the test: Fungicidal activity Penicillium ochrochloron.
Test [25] relates to Bacillus subtilis. Kind of test: Bactericidal activity against Bacillus subtilis.
In test [26] the test system is Aspergillus ochraceus. Nature of the test: Fungicidal activity Aspergillus ochraceus.

Converted amounts (≈) assume the structure as drawn.

In general, MFC refers to the smallest concentration meeting the test's criterion for killing the fungus. A higher MFC goes with weaker fungicidal potency. Usually MIC stands for the least concentration at which growth counts as inhibited. Read a high MIC as a need for much substance. In general, MBC refers to the smallest concentration meeting the test's criterion for killing. A low value points to more potent killing. `CN(C)c1ccc(/C=C(/C(=O)c2ccc3ccccc3c2)n2cncn2)cc1`: the MFC was 270 µM (≈ 99.5 µg/mL) in the test on Aspergillus versicolor [1]; 270 µM (≈ 99.5 µg/mL) in the test with Penicillium cyclopium [3]; 270 µM (≈ 99.5 µg/mL) in the test on Aspergillus fumigatus [6]; 270 µM (≈ 99.5 µg/mL) with Aspergillus niger [13]; 270 µM (≈ 99.5 µg/mL) in the test with Talaromyces funiculosus [14]; 140 µM (≈ 51.6 µg/mL) against Trichoderma viride [19]. The figures for the MFC in the test with Penicillium ochrochloron [24] and against Aspergillus ochraceus [26] were 270 µM (≈ 99.5 µg/mL) and 140 µM (≈ 51.6 µg/mL), respectively. Further, the MIC came out at 140 µM (≈ 51.6 µg/mL) in the test on Aspergillus fumigatus [2]; 2.7 µM (≈ 0.995 µg/mL) against Erwinia amylovora [5]; 5.4 µM (≈ 1.99 µg/mL) against Bacillus subtilis [7]; 70 µM (≈ 25.8 µg/mL) against Trichoderma viride [9]; 2.7 µM (≈ 0.995 µg/mL) with Pseudomonas fluorescens [10]; 140 µM (≈ 51.6 µg/mL) against Penicillium ochrochloron [11]. Besides, the MIC in test [12] is 2.7 µM (≈ 0.995 µg/mL); in the test with Penicillium cyclopium [15], 140 µM (≈ 51.6 µg/mL); against Talaromyces funiculosus [16], 190 µM (≈ 70 µg/mL); in the test with Aspergillus ochraceus [17] it was 70 µM (≈ 25.8 µg/mL); in the test on Aspergillus versicolor [21] it was 140 µM (≈ 51.6 µg/mL); against Xanthomonas campestris [22], 2.7 µM (≈ 0.995 µg/mL). This molecule also yielded an MIC in the test on Aspergillus niger [23] of 140 µM (≈ 51.6 µg/mL). Moreover, the MBC in test [4] turned out to be 2.7 µM (≈ 0.995 µg/mL); against Erwinia amylovora [8] it was 5.4 µM (≈ 1.99 µg/mL); in the test on Xanthomonas campestris [18] it was 5.4 µM (≈ 1.99 µg/mL); against Pseudomonas fluorescens [20] it was 2.7 µM (≈ 0.995 µg/mL); in the test with Bacillus subtilis [25] it was 5.4 µM (≈ 1.99 µg/mL).

In the case of `CC1(C)S[C@@H]2[C@H](NC(=O)[C@H](N)c3ccccc3)C(=O)N2[C@H]1C(=O)O` [AMPICILLIN], the MBC in test [4] was determined as 0.2 µM (≈ 0.0699 µg/mL); against Erwinia amylovora [8] it was 0.5 µM (≈ 0.175 µg/mL); with Xanthomonas campestris [18] it was 0.2 µM (≈ 0.0699 µg/mL); against Pseudomonas fluorescens [20], 8.6 µM (≈ 3 µg/mL); in the test on Bacillus subtilis [25], 0.2 µM (≈ 0.0699 µg/mL). In addition, the MIC in the test with Erwinia amylovora [5] was found to be 0.25 µM (≈ 0.0874 µg/mL); against Bacillus subtilis [7], 0.2 µM (≈ 0.0699 µg/mL); against Pseudomonas fluorescens [10], 8.6 µM (≈ 3 µg/mL); in test [12], 0.1 µM (≈ 0.0349 µg/mL); in the test on Xanthomonas campestris [22], 0.2 µM (≈ 0.0699 µg/mL).

As to `c1ccc(-c2ccc(C(c3ccccc3)n3ccnc3)cc2)cc1` (stereo not drawn) [BIFONAZOLE], the minimal fungicidal concentration (MFC) against Aspergillus versicolor [1] worked out at 640 µM (≈ 199 µg/mL); against Penicillium cyclopium [3], 640 µM (≈ 199 µg/mL); against Aspergillus fumigatus [6], 640 µM (≈ 199 µg/mL); against Aspergillus niger [13], 640 µM (≈ 199 µg/mL); against Talaromyces funiculosus [14], 810 µM (≈ 251 µg/mL); against Trichoderma viride [19], 640 µM (≈ 199 µg/mL). Also, the results for the MFC with Penicillium ochrochloron [24] and in the test with Aspergillus ochraceus [26] were 810 µM (≈ 251 µg/mL) and 640 µM (≈ 199 µg/mL), respectively. For the same molecule, the MIC against Aspergillus fumigatus [2] came out at 480 µM (≈ 149 µg/mL); in the test with Trichoderma viride [9], 480 µM (≈ 149 µg/mL); against Penicillium ochrochloron [11], 640 µM (≈ 199 µg/mL); with Penicillium cyclopium [15], 320 µM (≈ 99.3 µg/mL); with Talaromyces funiculosus [16] it was 640 µM (≈ 199 µg/mL); in the test on Aspergillus ochraceus [17], 480 µM (≈ 149 µg/mL). For the same molecule, the values for the MIC in the test with Aspergillus versicolor [21] and with Aspergillus niger [23] were 320 µM (≈ 99.3 µg/mL) and 480 µM (≈ 149 µg/mL), respectively.

As to `O=C(N[C@H](CO)[C@H](O)c1ccc([N+](=O)[O-])cc1)C(Cl)Cl` [CHLORAMPHENICOL], the MBC in [4] worked out at 0.5 µM (≈ 0.162 µg/mL); against Erwinia amylovora [8], 0.3 µM (≈ 0.0969 µg/mL); against Xanthomonas campestris [18] it was 0.1 µM (≈ 0.0323 µg/mL); against Pseudomonas fluorescens [20], 0.5 µM (≈ 0.162 µg/mL); in the test with Bacillus subtilis [25], 0.3 µM (≈ 0.0969 µg/mL). Moreover, the MIC in the test on Erwinia amylovora [5] was found to be 0.15 µM (≈ 0.0485 µg/mL); in the test on Bacillus subtilis [7], 0.3 µM (≈ 0.0969 µg/mL); in the test with Pseudomonas fluorescens [10] it was 0.5 µM (≈ 0.162 µg/mL); in test [12], 0.25 µM (≈ 0.0808 µg/mL); in the test on Xanthomonas campestris [22], 0.1 µM (≈ 0.0323 µg/mL).

As to `CC(=O)N1CCN(c2ccc(OCC3COC(Cn4ccnc4)(c4ccc(Cl)cc4Cl)O3)cc2)CC1` (stereo not drawn) [KETOCONAZOLE], the MFC against Aspergillus versicolor [1] came out at 940 µM (≈ 500 µg/mL); in the test on Penicillium cyclopium [3] it was 570 µM (≈ 303 µg/mL); against Aspergillus fumigatus [6] it was 940 µM (≈ 500 µg/mL); in the test on Aspergillus niger [13], 940 µM (≈ 500 µg/mL); against Talaromyces funiculosus [14] it was 940 µM (≈ 500 µg/mL); with Trichoderma viride [19], 2820 µM (≈ 1500 µg/mL). Further, the values for the MFC against Penicillium ochrochloron [24] and in the test with Aspergillus ochraceus [26] were 2820 µM (≈ 1500 µg/mL) and 380 µM (≈ 202 µg/mL), respectively. Moreover, the MIC turned out to be 380 µM (≈ 202 µg/mL) with Aspergillus fumigatus [2]; 1880 µM (≈ 999 µg/mL) in the test with Trichoderma viride [9]; 1880 µM (≈ 999 µg/mL) with Penicillium ochrochloron [11]; 380 µM (≈ 202 µg/mL) against Penicillium cyclopium [15]; 380 µM (≈ 202 µg/mL) in the test on Talaromyces funiculosus [16]; 280 µM (≈ 149 µg/mL) with Aspergillus ochraceus [17]. In addition, the MIC against Aspergillus versicolor [21] and in the test with Aspergillus niger [23] was 380 µM (≈ 202 µg/mL) each time.
